Results as given in patent US20130096100A1, “DI(ARYLAMINO)ARYL COMPOUND” (ASTELLAS PHARMA INC., priority 2007, published 2013).

Key:
[1] = molecular target: T1, EML4-ALK fusion protein v1 (Homo sapiens, UniProt Q9UM73, D1529E/I1461V/K1491R); experiment: Inhibitory activity against the kinase activity of EML4-ALK fusion protein v1 (Test Example 1); format: biochemical; details: ATP 100 μM, reaction 1 hour, HTRF KinEASE-TK
T1 construct: FLAG (N); made in house
Procedure: (§1) EML4-ALK fusion protein v1 (purified from BA/F3 cells expressing EML4-ALK fusion protein v1) was investigated for its phosphorylation activity toward a peptide substrate by using a kinase activity detection kit (HTRF KinEASE-TK; Cisbio Inc.). […] The ATP concentration used was 100 μM. Another reaction solution was prepared to contain the enzyme protein but no test compound (in which the solvent DMSO alone was added at 0.4% in place of the test compound), followed by reaction in the same manner with or without ATP addition. […] The concentration causing 50% inhibition (IC50) was calculated for each test compound by the logistic regression method.
(§2) N-terminally FLAG-tagged EML4-ALK fusion protein v1 was inserted into a vector pMX-iresCD8 capable of co-expression of insert cDNA and cell surface antigen CD8 (J. Biol. Chem., 2001, vol. 276, p. 39012-39020) to create a vector FLAG-EML4-ALKv1/pMX-iresCD8 expressing both FLAG-EML4-ALKv1 and CD8. FLAG-EML4-ALKv1/pMX-iresCD8 was used to create a recombinant retrovirus in the same manner as described above and infected into mouse lymphoid cell line BA/F3 cells. Using a magnetic bead reagent for cell separation and a purification column (anti-CD8 monoclonal antibody immobilized on magnetic beads and a MiniMACS purification column; both are products of Miltenyi Biotec Inc.), cell surface CD8-expressing cells were purified conveniently. […] After washing 3 times with PBS, the cells were lysed in a lysis solution (50 mM Tris.HCl (pH 7.4), 150 mM NaCl, 1% Triton X100, 5 mM EDTA, 5 mM EGTA, 1 mM NaVO4, 1 mM DTT and protease inhibitor cocktail complete). The EML4-ALK fusion protein v1 present in the supernatant obtained after centrifugation was purified using ANTI-FLAG M2 Affinity Gel (SIGMA-ALDRICH Inc.) according to the method described in the product information document.
(§3) The EML4-ALK fusion protein v1 purified as above was investigated for its phosphorylation activity toward a peptide substrate using a kinase activity detection kit (HTRF KinEASE-TK; Cisbio Inc.). Using TK substrate 1, which was included in the kit, as the substrate, and after adding no ATP or 100 μM ATP, the mixtures were reacted at room temperature for 1 hour, and the count of HTRF was detected as recommended by the Kits manufacturer.

[2] = system: human non-small cell lung cancer cell line NCI-H2228 cells (EML4-ALK fusion protein-expressing cells); experiment: Inhibitory effect against anchorage-independent cell growth of NCI-H2228 cells (Test Example 3); format: cell-based; details: 120 h, spheroid plate, 5 days, CellTiter-Glo
Text: Measurement for anchorage-independent cell growth (colony method, etc) has been known to be a system for investigating the anticancer action (pharmacological effect) of test compounds (Clinical Oncology, second edition, Cancer and Chemotherapy Publishers Inc.). In place of the colony method, there is a following method using spheroid plates for measuring the growth of non-attached cells.
(§4) In a 96-well spheroid plate (Sumilon Celltight Spheroid 96U; Sumitomo Bakelite Co., Ltd., Japan), human non-small cell lung cancer cell line NCI-H2228 cells were seeded at 2000 cells per well in RPMI1640 medium (Invitrogen) containing 10% fetal bovine serum. NCI-H2228 cells are those expressing another EML4-ALK fusion protein, which is different from the EML4-ALK fusion protein v1 because it is encoded by an EML4-ALK fusion polynucleotide whose fusion point on EML4 cDNA is different from that of the EML4-ALK fusion polynucleotide v1, but whose ALK region is the same as that of the EML4-ALK fusion polynucleotide v1. The above NCI-H2228 cells seeded in the plate were cultured overnight under 5% CO2 at 37° C., followed by addition of a test compound (final concentration: 10 μM to 1 nM). As a negative control, DMSO used as a solvent was added at the same concentration as the test compound. Then, the cells were cultured under 5% CO2 at 37° C. for 5 days. A cell counting reagent (CellTiter-Glo™ Luminescent Cell Viability Assay; Promega) was added and agitated for 20 minutes, followed by measurement with a luminometer (ML3000 microtiter plate luminometer; Dynatech Laboratories).

[3] = system: human non-small cell lung cancer cell line HCC827 cells (mutant EGFR protein-expressing cells); experiment: Inhibitory effect against anchorage-independent cell growth of HCC827 cells (Test Example 4); format: cell-based; details: 120 h, spheroid plate, 5 days, CellTiter-Glo
Procedure: as §4
Evaluation of Inhibitory Effect Against Anchorage-Independent Cell Growth of Human Non-Small Cell Lung Cancer Cell Line HCC827 Cells (Mutant EGFR (with Partial Deletion of Exon 19 in EGFR) Protein-Expressing Cells, American Type Culture Collection)
Evaluation was performed in the same manner as shown in Test Example 3.

[4] = molecular target: T1, EML4-ALK fusion protein v1; experiment: Inhibitory effect of compounds against the in vitro kinase activity of EML4-ALK fusion protein v1, single concentration (Test Example 12(3)); format: biochemical; details: final concentration 10 μM
Text: as §2, §3

[5] = system: v1 expressing 3T3 cells (tumor); experiment: Antitumor effect on v1 expressing 3T3 cells inoculated in nude mice (Test Example 13); format: in vivo; details: oral 10 mg/kg once a day for 14 days, started 7 days after inoculation, BALB/c nude mice
Procedure: 3×10^6 cells of v1 expressing 3T3 cells suspended in PBS were inoculated subcutaneously by injection to the back of 5 weeks old male BALB/c nude mice (Charles River Japan, Inc.). […] Administrations were performed once a day for 14 days, and body weight and tumor size were measured every other day. Tumor volume was calculated using the following formula.
[Tumor volume (mm^3)]=[Tumor major axis (mm)]×[tumor minor axis (mm)]^2×0.5
The antitumor effect of compound D was investigated by the similar procedure with the following exceptions. The administration of the compound was started after 6 days of the inoculation and carried out once a day for 10 days.

[6] = molecular target: T2, Mutant EGFR (L858R) protein (Homo sapiens, UniProt P00533, L858R); experiment: Inhibitory activity against the kinase activity of mutant EGFR (L858R) protein (Test Example 2); format: biochemical; details: ATP 5 μM, reaction 1 hour, HTRF KinEASE-TK
T2 construct: purchased Cana Biosciences Inc., Japan (sic; Carna Biosciences)
Procedure: The ATP concentration used was 5 μM. Another reaction solution was prepared to contain the enzyme protein but no test compound (in which the solvent DMSO alone was added at 0.4% in place of the test compound), followed by reaction in the same manner with or without ATP addition. […] The concentration causing 50% inhibition (IC50) was calculated for each test compound by the logistic regression method.

MUSK = molecular target: T3, MUSK (Homo sapiens, UniProt O15146); experiment: Inhibitory activity against the kinase activity of MUSK protein (Test Example 7); format: biochemical; set-up: purchased Carna Biosciences Inc., Japan; details: ATP 10 μM, reaction 1 hour, HTRF KinEASE-TK
T3 sequence (O15146 24-869): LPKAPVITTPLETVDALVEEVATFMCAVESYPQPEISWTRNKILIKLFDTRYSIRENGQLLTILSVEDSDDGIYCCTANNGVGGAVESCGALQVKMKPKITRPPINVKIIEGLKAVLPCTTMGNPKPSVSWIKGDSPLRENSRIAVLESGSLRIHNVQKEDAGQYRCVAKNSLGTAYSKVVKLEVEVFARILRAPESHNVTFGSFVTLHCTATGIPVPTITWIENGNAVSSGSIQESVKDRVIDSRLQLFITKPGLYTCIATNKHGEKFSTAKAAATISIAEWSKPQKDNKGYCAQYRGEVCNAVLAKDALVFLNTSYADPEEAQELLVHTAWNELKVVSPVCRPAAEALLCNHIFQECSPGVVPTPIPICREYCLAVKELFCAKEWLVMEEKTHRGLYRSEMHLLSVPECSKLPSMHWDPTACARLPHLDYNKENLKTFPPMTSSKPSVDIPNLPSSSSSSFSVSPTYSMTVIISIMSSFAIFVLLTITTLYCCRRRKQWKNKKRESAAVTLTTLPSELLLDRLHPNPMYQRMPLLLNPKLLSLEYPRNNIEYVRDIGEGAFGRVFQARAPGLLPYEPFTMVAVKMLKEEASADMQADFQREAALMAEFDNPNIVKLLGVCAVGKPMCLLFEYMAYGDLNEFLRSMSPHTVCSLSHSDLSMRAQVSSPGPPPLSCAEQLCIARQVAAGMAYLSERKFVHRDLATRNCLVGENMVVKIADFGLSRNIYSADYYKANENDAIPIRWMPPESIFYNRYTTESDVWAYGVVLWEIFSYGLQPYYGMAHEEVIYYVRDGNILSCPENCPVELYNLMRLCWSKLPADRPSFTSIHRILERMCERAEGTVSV
Procedure: as §1, with “MUSK” for “EML4-ALK fusion”, “(Carna Biosciences Inc., Japan)” for “v1 (purified from BA/F3 cells expressing EML4-ALK fusion protein v1)”, “10” for “100”

T1 sequence (Q9UM73 with tags, fused parts or gaps I1461V/K1491R/D1529E): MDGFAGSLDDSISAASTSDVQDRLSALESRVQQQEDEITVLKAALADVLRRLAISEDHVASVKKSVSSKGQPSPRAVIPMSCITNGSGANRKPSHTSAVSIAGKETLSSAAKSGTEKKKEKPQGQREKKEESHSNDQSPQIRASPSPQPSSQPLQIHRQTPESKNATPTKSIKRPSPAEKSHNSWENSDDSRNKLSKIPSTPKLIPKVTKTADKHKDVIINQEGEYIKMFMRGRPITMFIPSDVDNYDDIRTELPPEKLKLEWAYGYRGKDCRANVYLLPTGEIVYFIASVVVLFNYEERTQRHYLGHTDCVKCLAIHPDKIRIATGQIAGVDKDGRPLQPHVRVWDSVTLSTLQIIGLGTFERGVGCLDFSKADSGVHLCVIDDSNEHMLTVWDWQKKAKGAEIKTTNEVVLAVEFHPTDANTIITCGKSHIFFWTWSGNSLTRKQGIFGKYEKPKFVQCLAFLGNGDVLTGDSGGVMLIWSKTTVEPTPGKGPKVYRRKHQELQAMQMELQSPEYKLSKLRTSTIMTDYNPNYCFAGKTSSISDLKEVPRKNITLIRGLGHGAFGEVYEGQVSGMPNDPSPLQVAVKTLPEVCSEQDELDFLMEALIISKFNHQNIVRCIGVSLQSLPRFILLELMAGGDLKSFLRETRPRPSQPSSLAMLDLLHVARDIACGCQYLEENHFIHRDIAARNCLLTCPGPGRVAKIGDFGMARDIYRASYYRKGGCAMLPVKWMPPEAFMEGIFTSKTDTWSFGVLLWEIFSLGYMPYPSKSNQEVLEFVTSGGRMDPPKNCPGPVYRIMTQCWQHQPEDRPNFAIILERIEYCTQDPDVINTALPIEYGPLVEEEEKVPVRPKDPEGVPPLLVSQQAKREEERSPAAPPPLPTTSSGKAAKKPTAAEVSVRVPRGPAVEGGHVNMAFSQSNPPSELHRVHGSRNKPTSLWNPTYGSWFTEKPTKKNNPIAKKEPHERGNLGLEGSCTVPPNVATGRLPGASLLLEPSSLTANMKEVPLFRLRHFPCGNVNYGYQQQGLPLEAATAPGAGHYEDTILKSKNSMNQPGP
T2 sequence (P00533 25-1210 L858R): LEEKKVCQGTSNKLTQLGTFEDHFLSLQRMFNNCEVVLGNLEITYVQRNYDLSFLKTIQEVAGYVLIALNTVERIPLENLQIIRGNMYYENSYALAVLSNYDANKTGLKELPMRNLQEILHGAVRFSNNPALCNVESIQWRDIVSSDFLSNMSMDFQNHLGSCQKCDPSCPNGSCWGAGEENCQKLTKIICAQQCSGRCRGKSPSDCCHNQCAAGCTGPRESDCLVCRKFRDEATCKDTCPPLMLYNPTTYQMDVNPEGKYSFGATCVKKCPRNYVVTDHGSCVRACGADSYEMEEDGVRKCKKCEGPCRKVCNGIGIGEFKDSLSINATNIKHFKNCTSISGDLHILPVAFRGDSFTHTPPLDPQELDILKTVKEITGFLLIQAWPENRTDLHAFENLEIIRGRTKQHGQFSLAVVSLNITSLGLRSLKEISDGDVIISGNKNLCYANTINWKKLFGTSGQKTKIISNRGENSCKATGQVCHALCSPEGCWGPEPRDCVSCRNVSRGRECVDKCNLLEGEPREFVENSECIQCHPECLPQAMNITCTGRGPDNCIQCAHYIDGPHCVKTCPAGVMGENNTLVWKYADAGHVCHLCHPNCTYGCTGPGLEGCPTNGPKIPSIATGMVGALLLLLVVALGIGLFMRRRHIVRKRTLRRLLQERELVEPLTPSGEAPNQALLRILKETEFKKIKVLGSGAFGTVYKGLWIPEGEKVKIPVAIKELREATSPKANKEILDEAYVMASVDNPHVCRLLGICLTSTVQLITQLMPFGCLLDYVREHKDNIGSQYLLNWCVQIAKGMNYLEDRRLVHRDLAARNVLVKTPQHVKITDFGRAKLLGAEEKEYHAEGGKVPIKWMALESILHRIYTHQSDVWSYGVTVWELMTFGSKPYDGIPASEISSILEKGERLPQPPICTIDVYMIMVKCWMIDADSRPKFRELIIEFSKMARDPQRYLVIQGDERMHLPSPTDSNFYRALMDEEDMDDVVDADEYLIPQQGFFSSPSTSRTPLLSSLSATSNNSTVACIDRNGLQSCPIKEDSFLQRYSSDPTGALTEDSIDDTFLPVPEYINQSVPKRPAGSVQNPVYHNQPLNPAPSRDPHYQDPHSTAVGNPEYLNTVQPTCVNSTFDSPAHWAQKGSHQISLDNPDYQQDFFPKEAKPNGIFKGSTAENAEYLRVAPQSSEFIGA

Compound	IC50 [1] [nM]	IC50 [2] [nM]	IC50 [3] [nM]	inhibition at 10 µM [4] [%]	inhibition of the growth of v1 expressing 3T3 cells (tumor) [5] [%]	melting point [°C]	IC50 [6] [nM]	IC50 (MUSK) [nM]
COc1cc(N(C)C2CCN(C)CC2)ccc1Nc1ncnc(Nc2ccccc2S(=O)(=O)C(C)C)n1 [Example 52]	72	159	820					
COc1cc(N2CCN(C)CC2)ccc1Nc1ncnc(Nc2ccccc2S(=O)(=O)C(C)C)n1 [Example 24]	29	125	1030					
COc1cc(N2CCC(N3CCN(C)CC3)CC2)ccc1Nc1ncnc(Nc2ccccc2S(=O)(=O)NC2CC2)n1 [Example 171]	33	61	252					
COc1cc2ncnc(Nc3ccc(O)c(Br)c3)c2cc1OC [Compound A, 4-[(3′-bromo-4′-hydroxyphenyl)amino]-6,7-dimethoxyquinazoline]				99				
COc1cc(N2CC(N3CCN(C)CC3)C2)ccc1Nc1ncnc(Nc2ccccc2S(=O)(=O)C(C)C)n1 [Example 176]	150	119	496					
COc1cc(N2CCC(N3CCCC3)CC2)ccc1Nc1ncnc(Nc2ccccc2S(=O)(=O)C(C)C)n1 [Example 58]	25	156	648					
COc1cc(N2CCC(N3CCN(C)CC3)CC2)ccc1Nc1ncc(Cl)c(Nc2ccccc2S(=O)(=O)C(C)C)n1 [Compound C]					103			
COc1cc(N2CCC(N3CCN(C)CC3)CC2)ccc1Nc1ncnc(Nc2ccccc2S(=O)(=O)NC(C)C)n1 [Example 149]	40	62	512			185 to 189		
COc1cc(N2CCC(N3CCN(C)CC3)CC2)ccc1Nc1ncnc(Nc2ccccc2S(=O)(=O)N(C)C(C)C)n1 [Example 166]	49	125	419			162 to 164		
COc1cc(N2CCN(C3CCN(C)CC3)CC2)ccc1Nc1nc(Nc2ccccc2S(=O)(=O)C(C)C)c2ccccc2n1 [Example 45]	66	1040	1900			109 to 114		
COc1cc(N2CCC3(CCCCN3C)CC2)ccc1Nc1ncnc(Nc2ccccc2S(=O)(=O)C(C)C)n1 [Example 12]	61	134	509			132 to 135		
COc1cc(N2CCC3(CCCN3C)CC2)ccc1Nc1ncnc(Nc2ccccc2S(=O)(=O)C(C)C)n1 [Example 120]	74	168	660					
COc1cc(N2CCC(N3CCN(C)CC3)CC2)ccc1Nc1ncnc(Nc2ccccc2S(=O)(=O)N(C)C)n1 [Example 128]	2.3	64	175			167 to 170	98	1800
CNS(=O)(=O)c1ccccc1Nc1ncnc(Nc2ccc(N3CCC(N4CCN(C)CC4)CC3)cc2OC)n1 [Example 7, 2-{[4-({2-methoxy-4-[4-(4-methylpiperazin-1-yl)piperidin-1-yl]phenyl}amino)-1,3,5-triazin-2-yl]amino}-N-methylbenzenesulfonamide]	50	87	214					
COc1cc(N2CCC(N3CCC(O)C3)CC2)ccc1Nc1ncnc(Nc2ccccc2S(=O)(=O)C(C)C)n1 (stereo not shown) [Example 63]	26	96	791					
COc1cc(N2CCNCC2)ccc1Nc1ncnc(Nc2ccccc2S(=O)(=O)C(C)C)n1 [Example 72]	51	93	670					
O=C(COc1ccc(OC(F)(F)F)cc1)NCc1nc(C(=O)NCCc2cccc(Cl)c2)cs1 [Compound B, N-[2-(3-chlorophenyl)ethyl]-2-[({[4-(trifluoromethoxy)phenoxy]acetyl}amino)methyl]-1,3-thiazole-4-carboxamide]				56				
